Laboratory results: patent US20240400589A1, “4-AMINOPHENYLPHOSPHO[…] FOR BLOCKING C-REACTIVE PROTEIN” (Pentracor GmbH, priority 2021, published 2024)
Where two headings read alike, the source gives them in different places. Where a SMILES comes first, the peptide text is derived from it. The star is where a group is joined. X1 = C[N+](C)(C)CCOP(=O)([O-])Oc1ccc(N*)cc1

What was measured:
[1] = molecular target: T1, CRP (CRP-containing human plasma) (Homo sapiens, UniProt P02741); assay: Inhibition of CRP binding to a plate-coated BSA-APPC construct
T1 construct: from tissue; host or cells: human plasma
T1 sequence (P02741 19-224): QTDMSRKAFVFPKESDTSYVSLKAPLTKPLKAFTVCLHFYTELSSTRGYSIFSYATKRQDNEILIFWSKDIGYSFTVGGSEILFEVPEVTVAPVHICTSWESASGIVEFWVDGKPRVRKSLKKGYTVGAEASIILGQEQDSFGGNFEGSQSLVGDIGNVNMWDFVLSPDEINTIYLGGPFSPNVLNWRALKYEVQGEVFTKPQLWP
Method: A microtiter plate was coated with 100 μg/mL of a BSA-APPC construct, which binds CRP in a calcium-dependent manner, for 1 hour at room temperature (coating buffer: 0.1 M NaHCO3). Subsequently, 4 washes with 400 μl binding buffer (0.1 M Tris, 0.2 M NaCl, 2 mM CaCl2)) and non-specific binding sites were saturated with block solution (1% casein, 0.9% NaCl, 0.001% thiomersal) for 1 h at room temperature or overnight at 2-8° C.
Afterwards, the block solution was removed and the samples were applied in binding buffer. CRP-containing human plasma was diluted to 50 ng/mL CRP and applied either pure or together with different concentrations (0.25-3 mM) of the various inhibitors 1, 4, 5 and APPC and incubated for 1.5 h at room temperature with horizontal shaking (600 rpm). The plate was then washed again as described above.
After washing, 100 μL of a POD-labelled rabbit anti-huCRP antibody (final concentration: 25 ng/mL) in calcium-containing block solution (final concentration of calcium 4 mM) was added and the plate was incubated for 1.5 h at room temperature with shaking.
The plate was then washed again as described above. Development was carried out by adding 100 μl substrate buffer (0.2 M citric acid, 0.01% H2O2, 100 μg/mL TMB). The colour reaction was stopped by adding 50 μL of 1 M H2SO4 and the absorbance was measured at 450 nm. The absorbance at 655 nm (turbidity) was subtracted as background.
For the determination of inhibition, the OD of the CRP with inhibitor was normalised to the OD of the CRP without inhibitor:
The relative OD was then plotted against the concentration of stabilised APPC constructs in the batch. Only APPC was used as a comparative sample. It is clear that constructs 1 and 5 or 3 and APPC show an inhibition curve that is identical within the measurement uncertainty. […] For APPC/3, the corresponding concentration is 0.7±0.06 mmol/L. Thus, all stabilised APPC constructs show a good inhibition capacity.

huCRP [2] = molecular target: T2, huCRP (Homo sapiens, UniProt P02741); assay: ELISA: binding of CRP to solid phase-fixed biotin-D-Glu(APPC)-NH2 on streptavidin-coated microtiter plates; settings: for Optical Density (OD): mean of duplicates
T2 sequence (P02741 19-224): T1 sequence (P02741 19-224)
Method: Streptavidin-coated microtiter plates were incubated with a solution containing biotin-D-Glu(APPC)—NH2) (2) and then washed with phosphate buffer (PBS). The reactive parts of the MTP surface were then blocked with BSA solution (a standard procedure). CRP was then added in a concentration range of 31-500 ng/ml and incubated (see table below). After renewed washing, the bound CRP was detected using a murine monoclonal antibody (DH7) against CRP and a secondary, POD-conjugated anti-mouse antibody, followed by substrate development

huCRP [3] = molecular target: T2, huCRP; assay: ELISA: binding of free CRP and free biotin-D-Glu(APPC)-NH2 in solution, complex captured on streptavidin plates; settings: for Optical Density (OD): mean of duplicates
Method: CRP and compound 2 were incubated in a reaction vessel for 1 h at room temperature for complexation. The final concentrations were 10 μg/ml CRP (MW approx. 125 KD) and 2 μg/ml compound 2 (MW approx. 1 KD). The solution was then added to streptavidin-coated microtiter plates (MTP) at the dilution levels indicated in Tab. 2 at […] each and incubated with a block solution (Roche) for 30 min at room temperature. The MTPs were then washed 3 times. Using the in house monoclonal antibody “DH7” specific for huCRP and a peroxidase-conjugated secondary antibody (anti-mouse) as well as the substrate TMB, the huCRP previously bound to compound 2 was detected.

[4] = 50 ng/mL CRP from human plasma, inhibitor 0.25-3 mM, BSA-APPC coated plate, read-out: 50% inhibitor concentration (IC50)

Compound: CC(=O)N1CCC[C@H]1C(=O)N[C@@H](C)C(=O)N[C@@H](CO)C(=O)N[C@@H](CCC(=O)Nc1ccc(OP(=O)([O-])OCC[N+](C)(C)C)cc1)C(=O)N1CCC[C@H]1C(=O)N[C@@H](C)C(=O)N[C@@H](CO)C(N)=O [Compound 5] (Ac-PASE(X1)PAS-NH2)
- IC50 [1]: 1600 ± 100 µM

Compound: C[N+](C)(C)CCOP(=O)([O-])Oc1ccc(NC(=O)CC[C@@H](NC(=O)CCCC[C@@H]2SC[C@@H]3NC(=O)N[C@@H]32)C(N)=O)cc1 [Compound 2, Biotin-D-Glu(APPC)—NH2]
- Optical Density (OD) (huCRP [2]; CRP 31 ng/ml): 1.061
- Optical Density (OD) (huCRP [2]; CRP 62.5 ng/ml): 1.512
- Optical Density (OD) (huCRP [2]; CRP 125 ng/ml): 2.081
- Optical Density (OD) (huCRP [2]; CRP 250 ng/ml): 2.627
- Optical Density (OD) (huCRP [2]; CRP 500 ng/ml): 3.242
- Binding to CRP (CRP binding curve, FIG. 1) (huCRP [2]; solid phase-fixed compound): binds to CRP
- Optical Density (OD) (huCRP [3]; complex dilution 1:20, 10 μg/ml CRP + 2 μg/ml compound 2): 2.685
- Optical Density (OD) (huCRP [3]; complex dilution 1:40): 2.219
- Optical Density (OD) (huCRP [3]; complex dilution 1:80): 1.801
- Optical Density (OD) (huCRP [3]; complex dilution 1:160): 1.242
- Optical Density (OD) (huCRP [3]; complex dilution 1:320): 0.875
- Optical Density (OD) (huCRP [3]; complex dilution 1:640): 0.548
- Optical Density (OD) (huCRP [3]; complex dilution 1:1280): 0.381
- Binding of CRP in solution (dilution series, FIG. 2) (huCRP [3]; free CRP and free compound, 1 h room temperature): binds CRP in solution

Compound: C[N+](C)(C)CCOP(=O)([O-])Oc1ccc(NC(=O)CC[C@@H](N)C(N)=O)cc1 [Compound 1, D-Glu(APPC)—NH2]
- IC50 [1, 4]: 1600 ± 100 µM

Compound: C[N+](C)(C)CCOP(=O)([O-])Oc1ccc(N)cc1 [APPC, 4-aminophenylphosphocholine, reference compound]
- IC50 [1, 4]: 700 ± 60 µM
